Reference: patent US12144864B2, “Tubulysins and protein-tubulysin conjugates” (Regeneron Pharmaceuticals, Inc., priority 2018, dated 2024)
Like-named read-outs stand apart in the source and are kept apart here.

Legend:
C4-2 cells = assay: Cell-based killing assay of payloads (CellTiter-Glo), C4-2 cells; set-up: species or system human; details: 5-day incubation; for IC50: Homo sapiens, C4-2, 120 h, average ± SD where replicates; for C4-2 % Kill: at maximum concentration tested (100 − % viable cells)
Summary of the method: (§1)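 Cells plated at 4000/well in line-specific complete medium, grown overnight, then exposed to 1:3 serial dilutions of payload (100 nM to […]) for 5 days. ATP-based CellTiter-Glo luminescence read; IC50 from four-parameter logistic 10-point fit, and % kill at top concentration as 100 − % viable.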

T47D cells = assay: Cell-based killing assay of payloads (CellTiter-Glo), T47D cells; set-up: species or system human; details: 5-day incubation; for IC50: Homo sapiens, T47D, 120 h; for T47D % Kill: at maximum concentration tested
Summary of the method: as §1

HEK293 cells = assay: Cell-based killing assay of payloads (CellTiter-Glo), HEK293 cells; set-up: species or system human; details: 5-day incubation; for IC50: Homo sapiens, HEK293, 120 h; for HEK293 % Kill: at maximum concentration tested
Summary of the method: as §1

HCT15 cells = assay: cells; format: cell-based, human; details: HCT15 cells; for HCT-15 + verapamil % Kill / HCT-15 % Kill: maximum % cell killing
Summary of the method: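 HCT15 colorectal carcinoma cells, 1000 per well in RPMI/10% FBS, with or without 5 ug/mL verapamil, exposed to 1:3 serially diluted payloads for 5 days at 37 °C. Viability measured by CellTiter-Glo ATP luminescence; IC50 from four-parameter logistic fit of a 10-point curve, % kill at top concentration.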

HL60/MX2 cells = assay: Cytotoxicity in panel of MDR cell lines, HL60/MX2 (72 h and 144 h); format: cell-based, human; details: for IC50: Homo sapiens
Summary of the method: (§2)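 MDR lines were seeded at 1000 cells/well in their normal growth media: RPMI/10% FBS for HCT-15 and HL60/MX2, RPMI/20% FBS for H69AR, and Waymouth's:McCoy's 1:1 with 10% FBS for MES-SA/MX2. Cells were exposed to 1:3 serially diluted payloads for 72 h or 144 h, and viability was read by CellTiter-Glo ATP luminescence. IC50 came from a four-parameter logistic fit; % kill at top concentration = 100 − % viable.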

MES-SA/MX2 cells = assay: Cytotoxicity in panel of MDR cell lines, MES-SA/MX2 (72 h and 144 h); format: cell-based, human; details: for IC50: Homo sapiens
Summary of the method: as §2

HCT-15 cells = assay: Cytotoxicity in panel of MDR cell lines, HCT-15 (72 h and 144 h); format: cell-based, human; details: for IC50: Homo sapiens
Summary of the method: as §2

H69AR cells = assay: Cytotoxicity in panel of MDR cell lines, H69AR (72 h and 144 h); format: cell-based, human; details: for IC50: Homo sapiens
Summary of the method: as §2

[1] = with 5 ug/mL Verapamil, read-out: HCT-15 + verapamil IC50
[2] = Homo sapiens, HCT-15, without Verapamil, read-out: HCT-15 IC50
[3] = 72 h incubation, read-out: HL60/MX2 IC50 72 h
[4] = 144 h incubation, read-out: HL60/MX2 IC50 144 h
[5] = 72 h incubation, read-out: MES-SA/MX2 IC50 72 h
[6] = 144 h incubation, read-out: MES-SA/MX2 IC50 144 h
[7] = 72 h incubation, read-out: HCT-15 IC50 72 h
[8] = 144 h incubation, read-out: HCT-15 IC50 144 h
[9] = 72 h incubation, read-out: H69AR IC50 72 h
[10] = 144 h incubation, read-out: H69AR IC50 144 h

Row | SMILES | IC50 (C4-2 cells) | C4-2 % Kill (C4-2 cells) | IC50 (T47D cells) | T47D % Kill (T47D cells) | IC50 (HEK293 cells) | HEK293 % Kill (HEK293 cells) | HCT-15 + verapamil % Kill (HCT15 cells; with 5 ug/mL Verapamil) | IC50 (HCT15 cells; [1]) | HCT-15 % Kill (HCT15 cells; without Verapamil) | IC50 (HCT15 cells; [2]) | HL60/MX2 % Kill 72 h (HL60/MX2 cells; 72 h incubation) | HL60/MX2 % Kill 144 h (HL60/MX2 cells; 144 h incubation) | IC50 (HL60/MX2 cells; [3]) | IC50 (HL60/MX2 cells; [4]) | MES-SA/MX2 % Kill 72 h (MES-SA/MX2 cells; 72 h incubation) | MES-SA/MX2 % Kill 144 h (MES-SA/MX2 cells; 144 h incubation) | IC50 (MES-SA/MX2 cells; [5]) | IC50 (MES-SA/MX2 cells; [6]) | HCT-15 % Kill 72 h (HCT-15 cells; 72 h incubation) | HCT-15 % Kill 144 h (HCT-15 cells; 144 h incubation) | other results
1 | C#CCCCCN(C(=O)[C@@H](NC(=O)[C@H]1CCCCN1C)[C@@H](C)CC)[C@H](C[C@@H](OC(C)=O)c1nc(C(=O)N[C@@H](Cc2ccc(F)cc2)CC(C)(C)C(=O)O)cs1)C(C)C [IVc, (4S)-4-({2-[(1R,3R)-1-(Acetyloxy)-3-[(2S,3S)—N-(hex-5-yn-1-yl)-3-methyl-2-{[(2R)-1-methylpiperidin-2-yl]formamido}pentanamido]-4-methylpentyl]-1,3-thiazol-4-yl}formamido)-5-(4-fluorophenyl)-2,2-dimethylpentanoic acid] | 92.4 pM | 92.2% | 205 pM | 81.4% | 307 pM | 84.8% | 98% | 113 pM | 99.2% | 302 pM | 97.7% | 99.9% | < 15 pM | < 15 pM | 98.2% | 99.9% | 374 pM | 604 pM | 97.3% | 99.8% | IC50 (HCT-15 cells; [7]): 125 pM; IC50 (HCT-15 cells; [8]): 165 pM; H69AR % Kill 72 h (H69AR cells; 72 h incubation): 96.6%; H69AR % Kill 144 h (H69AR cells; 144 h incubation): 99.3%; IC50 (H69AR cells; [9]): 360 pM; IC50 (H69AR cells; [10]): 725 pM
2 | C#CCCCCN(C(=O)[C@@H](NC(=O)[C@H]1CCCCN1C)[C@@H](C)CC)[C@H](C[C@@H](OC(C)=O)c1nc(C(=O)N[C@@H](Cc2ccc(N)cc2)C[C@H](C)C(=O)O)cs1)C(C)C [IVg, (2S,4R)-4-({2-[(1R,3R)-1-(Acetyloxy)-3-[(2S,3S)—N-(hex-5-yn-1-yl)-3-methyl-2-{[(2R)-1-methylpiperidin-2-yl]formamido}pentanamido]-4-methylpentyl]-1,3-thiazol-4-yl}formamido)-5-(4-aminophenyl)-2-methylpentanoic acid] | 136 pM | 91.7% | 413 pM | 62.9% | 539 pM | 86.5% | 97.5% | 328 pM | 97.1% | 460 pM | 98.5% | 100% | 124 pM | < 15 pM | 99.6% | 100% | 838 pM | 999 pM | 97.6% | 99.5% | IC50 (HCT-15 cells; [7]): 170 pM; IC50 (HCT-15 cells; [8]): 223 pM; H69AR % Kill 72 h (H69AR cells; 72 h incubation): 95.7%; H69AR % Kill 144 h (H69AR cells; 144 h incubation): 99.2%; IC50 (H69AR cells; [9]): 553 pM; IC50 (H69AR cells; [10]): 571 pM
3 | C#CCCCCN(C(=O)[C@@H](NC(=O)[C@H]1CCCCN1C)[C@@H](C)CC)[C@H](C[C@@H](OC(C)=O)c1nc(C(=O)N[C@@H](Cc2ccc(F)cc2)C[C@H](C)C(=O)O)cs1)C(C)C [IVe, (2S,4R)-4-({2-[(1R,3R)-1-(Acetyloxy)-3-[(2S,3S)—N-(hex-5-yn-1-yl)-3-methyl-2-{[(2R)-1-methylpiperidin-2-yl]formamido}pentanamido]-4-methylpentyl]-1,3-thiazol-4-yl}formamido)-5-(4-fluorophenyl)-2-methylpentanoic acid] | 74.2 pM | 91.8% | 155 pM | 67.2% | 281 pM | 86.7% | 97.6% | 100 pM | 95.8% | 295 pM | 97.3% | 99.9% | < 15 pM | < 15 pM | 99.6% | 99.9% | 786 pM | 2810 pM | 98.1% | 99.6% | IC50 (HCT-15 cells; [7]): 133 pM; IC50 (HCT-15 cells; [8]): 230 pM; H69AR % Kill 72 h (H69AR cells; 72 h incubation): 96.5%; H69AR % Kill 144 h (H69AR cells; 144 h incubation): 99%; IC50 (H69AR cells; [9]): 585 pM; IC50 (H69AR cells; [10]): 1260 pM
4 | C#CCCCON(C(=O)[C@@H](NC(=O)[C@H]1CCCCN1C)[C@@H](C)CC)[C@H](C[C@@H](OC(C)=O)c1nc(C(=O)N[C@@H](Cc2ccc(O)cc2)C[C@H](C)C(=O)O)cs1)C(C)C [Vg, (2S,4R)-4-({2-[(1R,3R)-1-(Acetyloxy)-4-methyl-3-[(2S,3S)-3-methyl-2-{[(2R)-1-methylpiperidin-2-yl]formamido}-N-(pent-4-yn-1-yloxy)pentanamido]pentyl]-1,3-thiazol-4-yl}formamido)-5-(4-hydroxyphenyl)-2-methylpentanoic acid] | 369 pM | 93.2% | 535 pM | 65.2% | 700 pM | 86.4% | 98% | 237 pM | 94.9% | 530 pM | 98% | 99.9% | 131 pM | 61 pM | 98% | 99.8% | 3540 pM | 5300 pM | 97.6% | 99.5% | IC50 (HCT-15 cells; [7]): 680 pM; IC50 (HCT-15 cells; [8]): 916 pM; H69AR % Kill 72 h (H69AR cells; 72 h incubation): 94.2%; H69AR % Kill 144 h (H69AR cells; 144 h incubation): 98.4%; IC50 (H69AR cells; [9]): 2130 pM; IC50 (H69AR cells; [10]): 2720 pM
